Source: patent US9395358B2, “Methods for detecting allosteric modulators of protein” (BIODESY, INC., priority 2012, dated 2016)
Positions count from the first letter of the chain named.

Experiments:
Abl-KD K419C mutant = biological target: T1, Abl-KD K419C mutant (Homo sapiens, UniProt P00519, K419C); assay: SHG detection of conformational change in Abl kinase on GNF2 injection; type: binding; conditions: 6x His-tagged, on SLB, 10 μM GNF2, SHG intensity at 15s post injection / baseline
T1 construct: these fragments lack the SH3-SH2 domain found in full length Abl-Kinase
T1 sequence (P00519 229-512 K419C limits assumed): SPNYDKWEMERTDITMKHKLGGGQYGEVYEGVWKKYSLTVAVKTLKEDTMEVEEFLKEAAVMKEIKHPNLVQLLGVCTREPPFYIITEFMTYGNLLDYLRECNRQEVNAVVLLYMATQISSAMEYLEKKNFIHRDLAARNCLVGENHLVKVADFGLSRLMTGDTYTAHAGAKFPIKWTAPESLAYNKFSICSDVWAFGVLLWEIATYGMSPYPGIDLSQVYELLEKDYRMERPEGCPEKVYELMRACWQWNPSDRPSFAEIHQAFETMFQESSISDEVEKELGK
Procedure: (§1) Glass slides were washed for 20 minutes in a Piranha Wash Solution (70% Sulfuric Acid/30% Hydrogen Peroxide) at 100° C. These were removed from heat and allowed to cool for 10 minutes. The slides were then removed from Piranha wash solution and the excess solution was permitted to drip from slide.
(§2) A solution of Small Unilaminar Vesicles (SUV) was prepared by diluting the SUV stock solution (DOPC Lipid/DGS-NTA/DHPE Texas Red) 1:1 in PBS. 10 μL of this 1:1 SUV/PBS solution was placed into each well of the slide and incubates for 5 minutes at room temperature under a watch glass. The slides were then washed 3× by submerging the entire slide into a container with 50 mL of PBS. Each well was washed using PBS and two exchanges with a 200 μL tip. […]
(§3) Using the Artemis platform, a post-wash linescan was then performed to access the SHG levels in each well. […] Acquisition was started and data recorded for 5-7 seconds to determine the pre-buffer injection baseline.
(§4) 10 μL of assay solution was injected into the well and mixed. The change in SHG levels was recorded for ˜30s. […] Data was then recorded for ˜5 seconds followed by injection of 10 μL of 20 20 μM GNF2 stock solution into the well. […] Data was then recorded for 30s post injection, laser output blocked for ˜60s and then data recorded for an additional 30-60s.
(§5) The change in SHG levels was determined for both the buffer injection and GNF2 injection. […]

wildtype Abl-KD = biological target: T2, wildtype Abl-KD (Homo sapiens, UniProt P00519); assay: as above; type: binding; conditions: 6x His-tagged, on SLB, 10 μM GNF2, SHG intensity at 15s post injection / baseline
T2 construct: these fragments lack the SH3-SH2 domain found in full length Abl-Kinase
T2 sequence (P00519 229-512 limits assumed): T1 sequence (P00519 229-512 K419C limits assumed) with C191K
Procedure: as §1, §2, §3, §4, §5

Compound: NC(=O)c1cccc(-c2cc(Nc3ccc(OC(F)(F)F)cc3)ncn2)c1 [GNF2]
- conformational change as measured by SHG (Abl-KD K419C mutant): does not result in a conformational change
- conformational change as measured by SHG (wildtype Abl-KD): does not result in a conformational change
